Patent US20250073340A1, “SPIROCYCLIC MDM2 MODULATOR AND USES THEREOF” (Newave Pharmaceutical Inc., priority 2021, published 2025)

What was measured:
[1] = Mice PK study; type: in vivo; conditions: 25 mg/kg; Oral, 25 mpk, CD-1 mouse, plasma
Procedure: Biological Example 4: Mice PK Study
The pharmacokinetics of compounds were evaluated in CD-1 mouse via Intravenous and Oral Administration. The IV dose was administered as a slow bolus in the Jugular vein, and oral doses were administered by gavage. The formulation for IV dosing was 5% DMSO in 20% HPBCD in water, and the PO formulation was 2.5% DMSO, 10% EtOH, 20% Cremphor EL, 67.5% D5W. The PK time point for the IV arm was 5, 15, 30 min, 1, 2, 4, 6, 8, 12, 24 hours post dose, and for PO arm was 15, 30 min, 1, 2, 4, 6, 8, 12, 24 hours post dose. Approximately 0.03 mL blood was collected at each time point. Blood of each sample was transferred into plastic micro centrifuge tubes containing EDTA-K2 and collect plasma within 15 min by centrifugation at 4000 g for 5 minutes in a 4° C. centrifuge. Plasma samples were stored in polypropylene tubes. The samples were stored in a freezer at −75±15° C. prior to analysis. Concentrations of compounds in the plasma samples were analyzed using a LC-MS/MS method. […] The following pharmacokinetic parameters were calculated, whenever possible from the plasma concentration versus time data: IV administration: C0, CL, Vd, T1/2, AUCinf, AUClast, MRT, Number of Points for Regression; PO administration: Cmax, Tmax, T1/2, AUCinf, AUClast, F %, Number of Points for Regression. […]

[2] = test system: BCL-2-dependent acute lymphoblastic leukemia (ALL) cell line RS4;11 overexpressing Bcl-2 G101V; assay: cells; type: cell-based; conditions: Homo sapiens, RS4-11; about 72 hours, ATPlite luminescence; read-out: RS4;11-G101V IC50
How it was run: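 About 1×10^4 cells per well treated with compound for about 72 hours in medium with 5% FBS or 10% normal human serum. Viability from ATP-based luminescence (ATPlite) after lysis; IC50 derived from dose range.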

[3] = molecular target: MDM2 (Homo sapiens (Human), UniProt Q00987); assay: In vitro MDM2 HTRF assay (inhibition of p53-MDM2 interaction); type: binding; conditions: GST-MDM2 / biotinylated p53 peptide
MDM2, sequence (Q00987 whole entry): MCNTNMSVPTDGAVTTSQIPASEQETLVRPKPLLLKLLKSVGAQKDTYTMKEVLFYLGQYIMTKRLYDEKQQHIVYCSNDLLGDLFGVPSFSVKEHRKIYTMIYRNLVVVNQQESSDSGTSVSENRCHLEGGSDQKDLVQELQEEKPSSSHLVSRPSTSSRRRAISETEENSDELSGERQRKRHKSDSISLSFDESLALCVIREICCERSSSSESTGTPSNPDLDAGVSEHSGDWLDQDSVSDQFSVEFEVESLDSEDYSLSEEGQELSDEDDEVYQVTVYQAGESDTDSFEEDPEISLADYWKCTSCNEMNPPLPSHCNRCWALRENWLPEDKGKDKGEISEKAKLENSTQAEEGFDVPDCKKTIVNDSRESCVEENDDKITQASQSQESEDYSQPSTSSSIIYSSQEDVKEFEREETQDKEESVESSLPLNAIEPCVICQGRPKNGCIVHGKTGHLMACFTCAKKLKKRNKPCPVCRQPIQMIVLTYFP

AUC [1]: 49400 ng·h/mL | IC50 [2]: 7.71 nM | IC50 [3]: 3.38 nM
Compound: COc1cc(C(=O)N2CCC3(CC2)C[C@@H]3C#Cc2cccc3c2CN([C@H]2CCC(=O)NC2=O)C3=O)ccc1NC(=O)[C@@H]1N[C@@H](CC(C)(C)C)[C@@]2(CNc3cc(Cl)ccc32)[C@H]1c1cccc(Cl)c1F [Example 58, (2′S,3S,4′S,5′R)-6-chloro-4′-(3-chloro-2-fluorophenyl)-2′-(2,2-dimethylpropyl)-N-{4-[(1S)-1-(2-{2-[(3S)-2,6-dioxopiperidin-3-yl]-1-oxo-3H-isoindol-4-yl}ethynyl)-6-azaspiro[2.5]octane-6-carbonyl]-2-methoxyphenyl}-1,2-dihydrospiro[indole-3,3′-pyrrolidine]-5′-carboxamide]
